{"source": "patent EP4813377A1", "about": "“PHARMACEUTICAL COMPOSITION FOR PREVENTING OR TREATING HEAD AND NECK CANCER” (Astrion Inc., priority 2023, dated 2025)", "key": {"FaDu cells [1]": {"system": "FaDu cells", "assay": "CCK assay, cell proliferation", "assay_type": "cell-based, human", "conditions": "0.5-4 µM, 48 hours, absorbance at 450 nm, FIG. 1", "method": "(§1) FaDu cells and squamous cell carcinoma-25 (SCC-25) cells, which are human head and neck cancer cell lines, were seeded in 96-well plates at a density of 1 x 10^5 cells/well and cultured for 24 hours. Thereafter, the cells were treated with compound AON-MG23 of the present invention at various concentrations and cultured for 48 hours. The cells were treated with the compound of the present invention at various concentrations of 0 µM, 0.5 µM, 1 µM, 2 µM, and 4 µM. 10 µL of cell counting kit (CCK) reagent was added and allowed to react for one hour, and then the absorbance was measured at 450 nm."}, "SCC-25 cells [2]": {"system": "SCC-25 cells", "assay": "CCK assay, cell proliferation", "assay_type": "cell-based, human", "conditions": "0.5-4 µM, 48 hours, absorbance at 450 nm, FIG. 1", "method": "as §1"}, "FaDu cells [3]": {"system": "FaDu cells", "assay": "clonogenic assay", "assay_type": "cell-based, human", "conditions": "0.125-1 µM, nine days, FIG. 2", "method": "To confirm the proliferation inhibitory effect of compound AON-MG23 of the present invention on head and neck cancer cells, a clonogenic assay was conducted. Specifically, head and neck cancer cell line FaDu cells were plated in a 6-well cell culture plate at a density of 250 cells per well. On the next day, the cell culture medium was removed and replaced with a cell culture medium containing compound AON-MG23 of the present invention at concentrations of 0 µM, 0.125 µM, 0.25 µM, 0.5 µM, and 1 µM. After culturing the cells for nine days, the resulting cell colonies were stained and photographed, and then the cell colonies were counted and analyzed using Image J software."}, "FaDu cells [4]": {"system": "FaDu cells", "assay": "cell migration assay (SPLScar Block plates)", "assay_type": "cell-based", "conditions": "Homo sapiens, 17 hours, FIG. 3A, read-out: inhibition of migration compared to the control group", "method": "(§2) Human head and neck cancer cell lines, FaDu cells and SCC-25 cells, were seeded in SPLScar Block plates (SPL) at a density of 7.2 x 10^4/well and cultured for 24 hours. After 24 hours, the blocks were removed, and at the same time, compound AON-MG23 of the present invention was applied at various concentrations. Thereafter, cells were cultured in a CO2 incubator at 37 °C for 17 hours. Specifically, the FaDu cells were treated with compound AON-MG23 of the present invention at concentrations of 0 µM, 0.25 µM, 0.5 µM, 1 µM, and 2 µM, and the SCC-25 cells were also treated at concentrations of 0 µM, 0.25 µM, 0.5 µM, 1 µM, and 2 µM. Photographs were taken before and after each culture, and the migration distance of the cells was measured using Image J software. Based on the results, the inhibition of the cell migration was analyzed."}, "SCC-25 cells [5]": {"system": "SCC-25 cells", "assay": "cell migration assay (SPLScar Block plates)", "assay_type": "cell-based", "conditions": "Homo sapiens, 17 hours, FIG. 3B, read-out: inhibition of migration compared to the control group", "method": "as §2"}, "EGFR protein": {"system": "EGFR protein", "assay": "Western blot of protein expression", "assay_type": "cell-based, human", "conditions": "48 hours, concentration-dependent", "method": "(§3) Human head and neck cancer cell lines, FaDu cells and SCC-25 cells, were seeded in 60 mm dishes at a density of 5 × 10^5 cells and cultured for 24 hours. Thereafter, the FaDu cells were treated with compound AON-MG23 of the present invention at concentrations of 0 µM, 0.25 µM, 0.5 µM, 1 µM, 2 µM, and 4 µM, and the SCC-25 cells were treated with the compound at concentrations of 0 µM, 0.25 µM, 0.5 µM, 1 µM, and 2 µM. The cells were cultured for 48 hours. After culture, the cells were recovered, and the recovered cells were lysed to perform Western blot. As antibodies used for Western blot, an anti-ANO1 antibody (Abcam, ab53212), an anti-EGFR antibody (Cell Signaling, #4267S), and an anti-glyceraldehyde 3-phosphate dehydrogenase (GAPDH) antibody (Santacruz, #SC-5286) were used. Protein concentration was quantified using the […] (Protein Quantitation Assay, BSA assay) (Pierce, Cat.23225). After lysing the cells, the proteins obtained therefrom were separated by molecular weight using 10% sodium dodecyl sulfate-polyacrylamide gel electrophoresis (SDS-PAGE) with equal amounts (20 µg). After transferring the proteins to a polyvinylidene fluoride (PVDF) membrane (Bio-Rad), the proteins were treated with a 5% blocking buffer (5% skim milk in Tris-buffered saline (TBS) buffer containing 0.1% Tween 20 (TBS-T)) at room temperature for one hour. Subsequently, the membrane was treated with a primary antibody, which was allowed to react at 4 °C for 16 hours. After the reaction was complete, the membrane was washed three times with TBS-T. Subsequently, the membrane was treated with a secondary antibody labeled with horseradish peroxidase at room temperature for one hour and then visualized using an enhanced chemiluminescence (ECL) kit (Bio-Rad). The amount of each protein was quantified and analyzed using Image J software."}, "ANO1 protein": {"system": "ANO1 protein", "assay": "Western blot of protein expression", "assay_type": "cell-based, human", "conditions": "48 hours, concentration-dependent", "method": "as §3"}, "FaDu cells [6]": {"system": "FaDu cells", "assay": "Matrigel Transwell invasion assay", "assay_type": "cell-based, human", "conditions": "0.25-2 µM, 24 hours, FIG. 4A", "method": "(§4) Human head and neck cancer cell lines, FaDu cells and SCC-25 cells, were seeded at a density of 6 x 10^4 cells/well on top of filters coated with Matrigel (Transwell invasion chamber, Corning). Thereafter, the FaDu cells were treated with compound AON-MG23 of the present invention at concentrations of 0 µM, 0.25 µM, 0.5 µM, 1 µM, and 2 µM, and the SCC-25 cells were also treated with the compound at concentrations of 0 µM, 0.25 µM, 0.5 µM, 1 µM, and 2 µM. Cells were cultured in a CO2 in an incubator at 37 °C for 24 hours. After culture, cell fixation and staining were performed using the Diff-Quick stain Kit (Sysmex, Kobe, Japan). The stained cells were imaged under a microscope, and the cells were counted and statistically analyzed using Image J software."}, "SCC-25 cells [7]": {"system": "SCC-25 cells", "assay": "Matrigel Transwell invasion assay", "assay_type": "cell-based, human", "conditions": "0.25-2 µM, 24 hours, FIG. 4B", "method": "as §4"}, "FaDu cells [8]": {"system": "FaDu cells", "assay": "drug combination effect, SRB assay with Bliss scoring", "assay_type": "cell-based, human", "conditions": "five days co-treatment, score > 0 = synergistic", "method": "The combination effect of compound AON-MG23 of the present invention was confirmed using Bliss scoring based on the results of the sulforhodamine B assay (SRB assay). Specifically, human head and neck cancer cell line FaDu cells were plated in a 96-well cell culture plate at a density of 1 x 10^3 cells/well. On the next day, in order to confirm the combination effect with compound AON-MG23 of the present invention, a drug, paclitaxel or osimertinib, was diluted to concentrations for testing, and cells were treated with the diluted drug and then cultured for five days. […] The absorbance of the dissolved solution was measured at 540 nm using a plate reader. The measured absorbance values were compared to the control group and converted into percentages, and the combination effect was analyzed using the percentage data at an analysis website (https://synergyfinder.fimm.fi/). The presence of a combination effect was evaluated according to the following criteria based on relevant literature (Bliss, C. I. (1939). The toxicity of poisons applied jointly. Annals of Applied Biology, 26(3), 585-615.): a score > 0 indicates a synergistic effect; a score = 0 indicates an independent effect; and a score < 0 indicates an antagonistic effect."}, "[9]": {"conditions": "SCC-25 cells, 0.25-2 µM, FIG. 5B"}}, "data": [{"smiles": "COc1cc(N2CCC(N(C)C)CC2)ccc1Nc1ncc(Cl)c(Nc2ccccc2N(C2CC2)S(C)(=O)=O)n1", "note": "[AON-MG23, N-(2-((5-chloro-2-((4-(4-(dimethylamino)piperidin-1-yl)-2-methoxyphenyl)amino)pyrimidin-4-yl)amino)phenyl)-N-cyclopropylmethanesulfonamide]", "values": [{"measurement": "proliferation of head and neck cancer cells", "setting": "FaDu cells [1]", "result": "inhibited the proliferation of head and neck cancer cells"}, {"measurement": "proliferation of head and neck cancer cells", "setting": "SCC-25 cells [2]", "result": "inhibited the proliferation of head and neck cancer cells"}, {"measurement": "clonogenesis", "setting": "FaDu cells [3]", "result": "clonogenesis of the FaDu cells was inhibited"}, {"measurement": "inhibition at 2 µM", "setting": "FaDu cells [4]", "result": "≥ 80", "unit": "%"}, {"measurement": "inhibition at 1 µM", "setting": "SCC-25 cells [5]", "result": "~90", "unit": "%"}, {"measurement": "EGFR protein level", "setting": "EGFR protein; FaDu cells, 0.25-4 µM, FIG. 5A", "result": "significantly inhibited"}, {"measurement": "EGFR protein level", "setting": "EGFR protein; [9]", "result": "significantly inhibited"}, {"measurement": "ANO1 protein level", "setting": "ANO1 protein; FaDu cells, 0.25-4 µM, FIG. 5A", "result": "significantly inhibited"}, {"measurement": "ANO1 protein level", "setting": "ANO1 protein; [9]", "result": "significantly inhibited"}, {"measurement": "degree of penetration into Matrigel", "setting": "FaDu cells [6]", "result": "reduced degree of penetration into Matrigel compared to the untreated control group"}, {"measurement": "degree of penetration into Matrigel", "setting": "SCC-25 cells [7]", "result": "reduced degree of penetration into Matrigel compared to the untreated control group"}, {"measurement": "Bliss synergy score", "setting": "FaDu cells [8]; combination with osimertinib, FIG. 6B", "result": 19.25}, {"measurement": "Bliss synergy score", "setting": "FaDu cells [8]; combination with paclitaxel, FIG. 6A", "result": 6.72, "unit": "points"}]}]}
